Literature values as cited in patent publication US20210378997A1, “INHIBITOR OF RENAL FIBROSIS IN DIABETIC NEPHROPATHY” (KYOTO PREFECTURAL PUBLIC UNIVERSITY CORPORATION, priority 2018, published 2021).

Settings: patients with diabetic nephropathy, 1-year medication

In the case of `Cc1ccc(=O)n(-c2ccccc2)c1` [pirfenidone], the “renal function (eGFR)” value is listed as “significantly improved”.
